Consider six compounds from patent US9066861B2 (priority 2009, dated 2015).

Structures are written as SMILES.

A short description of this data set: Assay (%) test of APIs in cream, stability study, HPLC method. Format: physicochemical. As for the experimental part: The stability of the product is confirmed by the stability studies performed for 3/6 months as per ICH guidelines.
APIs-stability experiments were carried out (see tables 3-20) using several products that are representative of the present invention. Tests were carried out to observe (or measure as appropriate) the physical appearance of the product, the pH value and assay of the APIs over a period of time. […] Betamethasone Valerate—0.12% (w/w) • ii. Fluticasone Propionate—0.05% (w/w) • iii. Mometasone Furoate—0.1% (w/w) • iv. Dexamethasone Acetate—0.1% (w/w) • v. Hydrocortisone Acetate—1.0% (w/w) • vi. Clobetasol Propionate—0.05% (w/w) • vii. Beclomethasone Dipropionate—0.025% (w/w) • viii. Betamethasone Dipropionate—0.05% (w/w) wherein all percentages are with respect to the final formulation.
The product used for the Stability Studies tests contained approximately 10% extra APIs (overages).

Consider `CCC(=O)OCC(=O)[C@@]1(OC(=O)CC)[C@@H](C)C[C@H]2[C@@H]3CCC4=CC(=O)C=C[C@]4(C)[C@@]3(Cl)[C@@H](O)C[C@@]21C` [Beclomethasone dipropionate], for which the “Assay (%)” value (in cream Batch No. SFB-01, 25° C. 60% RH, 1st Month) was found to be 108.05%; the “Assay (%)” value (in cream Batch No. SFB-01, 25° C. 60% RH, 2nd Month) came out at 108.00%; the “Assay (%)” value (in cream Batch No. SFB-01, 25° C. 60% RH, 3rd Month) amounted to 107.90%; the “Assay (%)” value (in cream Batch No. SFB-01, 30° C. 65% RH, 1st Month) is on record as 108.11%; the “Assay (%)” value (in cream Batch No. SFB-01, 30° C. 65% RH, 2nd Month) was determined as 107.96%; the “Assay (%)” value (in cream Batch No. SFB-01, 30° C. 65% RH, 3rd Month) amounted to 107.68%. Further, the “Assay (%)” value (in cream Batch No. SFB-01, 40° C. 75% RH, 1st Month) is 108.04%; the “Assay (%)” value (in cream Batch No. SFB-01, 40° C. 75% RH, 2nd Month) turned out to be 107.98%; the “Assay (%)” value (in cream Batch No. SFB-01, 40° C. 75% RH, 3rd Month) was determined as 107.88%; the “Assay (%)” value (in cream Batch No. SFB-01, Freezthaw, 1st Month) was 107.58%; the “Assay (%)” value (in cream Batch No. SFB-01, Initial) is on record as 108.12%; the “Assay (%)” value (in cream Batch No. SFB-01, Temperature cycling, 1st Month) was found to be 107.68%.
For the compound `CCCCC(=O)O[C@]1(C(=O)CO)[C@@H](C)C[C@H]2[C@@H]3CCC4=CC(=O)C=C[C@]4(C)[C@@]3(F)[C@@H](O)C[C@@]21C` [Betamethasone Valerate], the “Assay (%)” value (in cream Batch No. SBV-01, 25° C. 60% RH, 1st Month) turned out to be 109.54%; the “Assay (%)” value (in cream Batch No. SBV-01, 25° C. 60% RH, 2nd Month) was 109.42%; the “Assay (%)” value (in cream Batch No. SBV-01, 25° C. 60% RH, 3rd Month) was found to be 109.21%; the “Assay (%)” value (in cream Batch No. SBV-01, 30° C. 65% RH, 1st Month) was 109.48%; the “Assay (%)” value (in cream Batch No. SBV-01, 30° C. 65% RH, 2nd Month) is 109.42%; the “Assay (%)” value (in cream Batch No. SBV-01, 30° C. 65% RH, 3rd Month) is 109.20%. The “Assay (%)” value stood at 109.51% (in cream Batch No. SBV-01, 40° C. 75% RH, 1st Month); 109.32% (in cream Batch No. SBV-01, 40° C. 75% RH, 2nd Month); 109.11% (in cream Batch No. SBV-01, 40° C. 75% RH, 3rd Month); 108.25% (in cream Batch No. SBV-01, Freezthaw, 1st Month); 109.56% (in cream Batch No. SBV-01, Initial); 109.51% (in cream Batch No. SBV-01, Temperature cycling, 1st Month).
`CCC(=O)O[C@]1(C(=O)CCl)[C@@H](C)C[C@H]2[C@@H]3CCC4=CC(=O)C=C[C@]4(C)[C@@]3(F)[C@@H](O)C[C@@]21C` [Clobetasol Propionate]: the “Assay (%)” value (in cream Batch No. SPC-01, 25° C. 60% RH, 1st Month) turned out to be 107.40%; the “Assay (%)” value (in cream Batch No. SPC-01, 25° C. 60% RH, 2nd Month) amounted to 107.34%; the “Assay (%)” value (in cream Batch No. SPC-01, 25° C. 60% RH, 3rd Month) is listed as 107.30%; the “Assay (%)” value (in cream Batch No. SPC-01, 25° C. 60% RH, 6th Month) is reported as 107.24%; the “Assay (%)” value (in cream Batch No. SPC-01, 30° C. 65% RH, 1st Month) is on record as 107.38%; the “Assay (%)” value (in cream Batch No. SPC-01, 30° C. 65% RH, 2nd Month) worked out at 107.32%. Besides, the “Assay (%)” value by setting is: (in cream Batch No. SPC-01, 30° C. 65% RH, 3rd Month) 107.29%; (in cream Batch No. SPC-01, 30° C. 65% RH, 6th Month) 107.22%; (in cream Batch No. SPC-01, 40° C. 75% RH, 1st Month) 107.34%; (in cream Batch No. SPC-01, 40° C. 75% RH, 2nd Month) 107.22%; (in cream Batch No. SPC-01, 40° C. 75% RH, 3rd Month) 107.15%; (in cream Batch No. SPC-01, 40° C. 75% RH, 6th Month) 107.10%. Moreover, the “Assay (%)” value is, setting by setting: (in cream Batch No. SPC-01, Freezthaw, 1st Month) 107.11%; (in cream Batch No. SPC-01, Initial) 107.41%; (in cream Batch No. SPC-01, Temperature cycling, 1st Month) 107.21%.
As for `CCC(=O)O[C@]1(C(=O)SCF)[C@H](C)C[C@H]2[C@@H]3C[C@H](F)C4=CC(=O)C=C[C@]4(C)[C@@]3(F)[C@@H](O)C[C@@]21C` [Fluticasone Propionate], the “Assay (%)” value is, setting by setting: (in cream Batch No. SFC-01, 25° C. 60% RH, 1st Month) 108.54%; (in cream Batch No. SFC-01, 25° C. 60% RH, 2nd Month) 108.42%; (in cream Batch No. SFC-01, 25° C. 60% RH, 3rd Month) 108.21%; (in cream Batch No. SFC-01, 25° C. 60% RH, 6th Month) 108.10%; (in cream Batch No. SFC-01, 30° C. 65% RH, 1st Month) 108.48%; (in cream Batch No. SFC-01, 30° C. 65% RH, 2nd Month) 108.42%. The “Assay (%)” value turned out to be 108.20% (in cream Batch No. SFC-01, 30° C. 65% RH, 3rd Month); 108.11% (in cream Batch No. SFC-01, 30° C. 65% RH, 6th Month); 108.51% (in cream Batch No. SFC-01, 40° C. 75% RH, 1st Month); 108.32% (in cream Batch No. SFC-01, 40° C. 75% RH, 2nd Month); 108.11% (in cream Batch No. SFC-01, 40° C. 75% RH, 3rd Month); 108.08% (in cream Batch No. SFC-01, 40° C. 75% RH, 6th Month). Further, the “Assay (%)” value (in cream Batch No. SFC-01, Freezthaw, 1st Month) stood at 108.15%; the “Assay (%)” value (in cream Batch No. SFC-01, Initial) is given as 108.56%; the “Assay (%)” value (in cream Batch No. SFC-01, Temperature cycling, 1st Month) was 108.51%.
For the compound `CC(=O)OCC(=O)[C@@]1(O)CC[C@H]2[C@@H]3CCC4=CC(=O)CC[C@]4(C)[C@H]3[C@@H](O)C[C@@]21C` [Hydrocortisone Acetate], the “Assay (%)” value reads like this: (in cream Batch No. HAS-01, 25° C. 60% RH, 1st Month) 107.14%; (in cream Batch No. HAS-01, 25° C. 60% RH, 2nd Month) 107.11%; (in cream Batch No. HAS-01, 25° C. 60% RH, 3rd Month) 107.10%; (in cream Batch No. HAS-01, 30° C. 65% RH, 1st Month) 107.14%; (in cream Batch No. HAS-01, 30° C. 65% RH, 2nd Month) 107.12%; (in cream Batch No. HAS-01, 30° C. 65% RH, 3rd Month) 107.09%. In addition, the “Assay (%)” value runs as follows: (in cream Batch No. HAS-01, 40° C. 75% RH, 1st Month) 107.14%; (in cream Batch No. HAS-01, 40° C. 75% RH, 2nd Month) 107.12%; (in cream Batch No. HAS-01, 40° C. 75% RH, 3rd Month) 107.05%; (in cream Batch No. HAS-01, Freezthaw, 1st Month) 107.14%; (in cream Batch No. HAS-01, Initial) 107.15%; (in cream Batch No. HAS-01, Temperature cycling, 1st Month) 107.11%.
Take `C[C@@H]1C[C@H]2[C@@H]3CCC4=CC(=O)C=C[C@]4(C)[C@@]3(Cl)[C@@H](O)C[C@]2(C)[C@@]1(OC(=O)c1ccco1)C(=O)CCl` [Mometasone Furoate]: the “Assay (%)” value reads like this: (in cream Batch No. SFM-01, 25° C. 60% RH, 1st Month) 108.54%; (in cream Batch No. SFM-01, 25° C. 60% RH, 2nd Month) 108.42%; (in cream Batch No. SFM-01, 25° C. 60% RH, 3rd Month) 108.21%; (in cream Batch No. SFM-01, 25° C. 60% RH, 6th Month) 107.82%; (in cream Batch No. SFM-01, 30° C. 65% RH, 1st Month) 108.48%; (in cream Batch No. SFM-01, 30° C. 65% RH, 2nd Month) 108.42%. Moreover, the “Assay (%)” value by setting is: (in cream Batch No. SFM-01, 30° C. 65% RH, 3rd Month) 108.20%; (in cream Batch No. SFM-01, 30° C. 65% RH, 6th Month) 107.75%; (in cream Batch No. SFM-01, 40° C. 75% RH, 1st Month) 108.51%; (in cream Batch No. SFM-01, 40° C. 75% RH, 2nd Month) 108.32%; (in cream Batch No. SFM-01, 40° C. 75% RH, 3rd Month) 108.11%; (in cream Batch No. SFM-01, 40° C. 75% RH, 6th Month) 107.88%. Also, the “Assay (%)” value was 108.15% (in cream Batch No. SFM-01, Freezthaw, 1st Month); 108.56% (in cream Batch No. SFM-01, Initial); 108.51% (in cream Batch No. SFM-01, Temperature cycling, 1st Month).
